In patent publication US20080107619A1, “Carbohydrate based cellulase inhibitors as feeding stimulants in termites” (University of Florida Research Foundation, Inc., priority 2006, published 2008):

Columns and labels:
endoglucanase = assay: In vitro endoglucanase inhibition, CMC assay (I50 determination); format: biochemical, R. flavipes; details: foregut/salivary gland/midgut (endogenous) and hindgut (symbiotic) fractions, FIG. 4
Procedure: (§1) Gut dissections were carried out for cellulase distribution and inhibition studies. For dissections, termites were immobilized on ice, decapitated, and the entire digestive tract removed through a small incision made in the abdominal exoskeleton. For cellulase distribution studies, dissected guts were divided into three regions: (i) salivary gland+foregut, (ii) midgut and (iii) hindgut. For inhibition studies, guts were divided into two major components that included: (i) foregut, salivary gland and midgut, and (ii) hindgut. […]
(§2) Cellulase activity assays were adapted from Han et al. in “Characterization of a bifunctional cellulase and its structural gene,” J. Biol. Chem. 270 (1995) 26012-26019, with optimization for a 96-well microplate format. […] Color was allowed to develop on ice for 15 min before measuring absorbance at 540 nm relative to a glucose standard curve.
The efficacy of the three carbohydrate-based cellulase inhibitors CBI (FIG. 1D), FMG (FIG. 1E) and FMCB (FIG. 1F) was tested against two different gut enzyme sources that included (i) endogenous termite cellulases from salivary gland, foregut and midgut, and (ii) symbiotic cellulases from the hindgut. […] Percent inhibition was calculated relative to methanol controls. […]

exoglucanase = assay: In vitro exoglucanase inhibition, pNPC assay (I50 determination); format: biochemical, R. flavipes; details: foregut/salivary gland/midgut (endogenous) and hindgut (symbiotic) fractions, FIG. 4
Procedure: as §1, §2
The hydrolysis product of both the pNPC and pNPG substrates is p-nitrophenol, which is yellow in color and permits for direct quantification of activity in a kinetic assay. pNPC and pNPG assays were initially incubated at 32° C. for 20 min before measuring the release of the product, p-nitrophenol, at 420 nm. The absorbance of reactions was read every 2 min for 1 hr and activity was determined based on rate of absorbance change. […]

Compound | I50 against endoglucanase activity (endoglucanase) | I50 against exoglucanase activity (exoglucanase)
fluoromethyl glucose [FMG] | virtually no inhibitory properties | virtually no inhibitory properties
OC[C@@H]1[C@@H](O[C@@H]2O[C@H](CO)[C@@H](O)[C@H](O)[C@H]2O)[C@H](O)[C@@H](O)c2nccn21 [CBI, cellobioimidazole] | virtually no activity | I50s in the nM-μM range
